Measurements as given in publication PMC11722285, “Exploring the Potential of Malvidin and Echiodinin as Probable Antileishmanial Agents Through In Silico Analysis and In Vitro Efficacy” (Molecules, 2025).

Key:
Format in all cases: cell-based
[1] = tested on: L. amazonensis stationary promastigotes; assay: In vitro antileishmanial activity, stationary promastigotes (MTT)
Protocol: (§1) L. amazonensis (IFLA/BR/1967/PH-8), L. braziliensis (MHOM/BR/1975/M2903), and L. infantum (MHOM/BR/1970/BH46) were used as parasites. Stationary promastigotes were grown at a 24 °C in complete Schneider’s medium (Sigma-Aldrich, St. Louis, MO, USA), which was composed of medium plus 20% (v/v) heat-inactivated fetal bovine serum (FBS; Sigma-Aldrich, USA) and 20 mM L-glutamine with a pH of 7.4 [139]. To obtain the axenic amastigotes, 10^9 stationary promastigotes were washed three times in sterile phosphate-buffered saline (PBS 1X and incubated in 5 mL FBS for 48 h (L. amazonensis and L. braziliensis) and 72 h (L. infantum), respectively, at 37 °C. Parasites were washed in cold PBS 1x, and their morphology was evaluated after staining using the Giemsa method in an optical microscope, as previously described.
(§2) AmpB (0 to 10.8 µM; Sigma-Aldrich, USA) was used as control. Cell viability was assessed through 3-(4.5-dimethylthiazol-2-yl)-2.5-diphenyl tetrazolium bromide (Sigma-Aldrich, USA) method. Optical density (OD) values were measured in a microplate spectrophotometer (Molecular Devices, Spectra Max Plus, San Jose, CA, USA) at 570 nm. IC50 values were calculated by sigmoidal regression of dose–response curves in Microsoft Excel software (version 10.0). Two-tailed Student’s t-tests (p < 0.05) were used to compare IC50 values between malvidin and echioidinin, assessing significant differences in inhibitory activity.

[2] = tested on: L. braziliensis stationary promastigotes; assay: as above
Protocol: as §1, §2

[3] = tested on: L. infantum stationary promastigotes; assay: as above
Protocol: as §1, §2

[4] = tested on: L. amazonensis axenic amastigotes; assay: In vitro antileishmanial activity, axenic amastigotes (MTT)
Protocol: as §1, §2

[5] = tested on: L. braziliensis axenic amastigotes; assay: as above
Protocol: as §1, §2

[6] = tested on: L. infantum axenic amastigotes; assay: as above
Protocol: as §1, §2

[7] = Cytotoxicity assay in macrophages (MTT); details: mouse, murine macrophages, mean ± SD
Protocol: Cytotoxicity was evaluated ex vivo in murine macrophages and human red blood cells, for which concentrations inhibiting 50% of macrophages (CC50) and red blood cells (RBC50) were determined. […] Cells were incubated in RPMI 1640 medium for 48 h (murine macrophages) or 1 h (red blood cells) at 37 °C in 5% CO2. Macrophage viability was assessed using the MTT method. The red blood cell suspension was centrifuged at 1000× g for 10 min at 4 °C, after which the percentage of cell lysis was evaluated spectrophotometrically at 570 nm. The hemolysis was determined by replacing the natural products with an equal volume of phosphate-buffered saline with a pH of 7.4 (PBS—negative control) or distilled water (positive control). CC50 and RBC50 values were calculated by sigmoidal regression of dose–response curves in Microsoft Excel software (version 10.0). SI was calculated as the ratio between CC50 and IC50 values.

[8] = tested on: O+ human red blood cells; assay: Hemolytic activity; details: lysis of 50% of O+ human red blood cells; 1 h; mean ± SD
Protocol: Cytotoxicity was evaluated ex vivo in murine macrophages and human red blood cells, for which concentrations inhibiting 50% of macrophages (CC50) and red blood cells (RBC50) were determined. Briefly, murine cells (5 × 10^5) or a 5% human red blood cells suspension were incubated in the presence of malvidin (0 to 301.84 µM) or echioidinin (0 to 356.76 µM) AmpB (0 to 10.82 µM) was used as control. Cells were incubated in RPMI 1640 medium for 48 h (murine macrophages) or 1 h (red blood cells) at 37 °C in 5% CO2. Macrophage viability was assessed using the MTT method. The red blood cell suspension was centrifuged at 1000× g for 10 min at 4 °C, after which the percentage of cell lysis was evaluated spectrophotometrically at 570 nm. The hemolysis was determined by replacing the natural products with an equal volume of phosphate-buffered saline with a pH of 7.4 (PBS—negative control) or distilled water (positive control). CC50 and RBC50 values were calculated by sigmoidal regression of dose–response curves in Microsoft Excel software (version 10.0). SI was calculated as the ratio between CC50 and IC50 values.

[9] = tested on: L. amazonensis-infected murine macrophages; assay: Treatment of infected macrophages; details: 48 h
Protocol: (§3) To evaluate the efficacy of malvidin or echioidinin for treating infected macrophages, murine cells (5 × 10^5) were plated on round glass coverslips in 24-well plates in RPMI 1640 medium supplemented with 20% (v/v) FBS and 20 mM L-glutamine at a pH of 7.4 and incubated for 24 h at 37 °C in 5% CO2. Stationary promastigotes were added to the wells at a ratio of 10 parasites per macrophage, and cultures were incubated further for 48 h at 37 °C for 5% CO2. Free parasites were removed by extensive washing with RPMI 1640 medium, and infected macrophages were treated with malvidin (30.18, 60.37, and 120.74 µM), echioidinin (35.18, 70.36, and 140.72 µM), or AmpB (2.70 and 5.41 µM) for 48 h at […] in 5% CO2. After fixation with 4% paraformaldehyde, cells were washed and stained with Giemsa, and the infection percentage, the number of amastigotes per infected macrophage, and the reduction in the infection percentage were determined by counting 200 cells in triplicate, using an optical microscope.

[10] = tested on: L. braziliensis-infected murine macrophages; assay: Treatment of infected macrophages; details: 48 h
Protocol: as §3

[11] = tested on: L. infantum-infected murine macrophages; assay: Treatment of infected macrophages; details: 48 h
Protocol: as §3

[12] = ratio between CC50 (macrophages) and IC50

In the case of `COc1cc(O)c2c(=O)cc(-c3ccccc3O)oc2c1` [Echioidinin, echioidinin], the IC50 ([1]; Leishmania amazonensis, 48 h, stationary promastigotes, 48 h, mean ± SD, read-out: IC50 (µM) Stationary Promastigotes L. amazonensis) is reported as 273 ± 29 µM, the “Selectivity Index (SI) Stationary Promastigotes L. amazonensis” value [1, 12] is reported as 10.80 and the IC50 ([2]; Leishmania braziliensis, stationary promastigotes, 48 h, mean ± SD, read-out: IC50 (µM) Stationary Promastigotes L. braziliensis) is reported as 251 ± 22 µM. The “Selectivity Index (SI) Stationary Promastigotes L. braziliensis” value [2, 12] was 12.10, the IC50 ([3]; Leishmania infantum, stationary promastigotes, 48 h, mean ± SD, read-out: IC50 (µM) Stationary Promastigotes L. infantum) was 213 ± 16 µM and the “Selectivity Index (SI) Stationary Promastigotes L. infantum” value [3, 12] was 14.00. For the same compound, the IC50 ([4]; Leishmania amazonensis, 48 h, axenic amastigotes, 48 h, mean ± SD, read-out: IC50 (µM) Axenic amastigotes L. amazonensis) was 336 ± 19 µM, the “Selectivity Index (SI) Axenic amastigotes L. amazonensis” value [4, 12] was 8.90 and the IC50 ([5]; Leishmania braziliensis, axenic amastigotes, 48 h, mean ± SD, read-out: IC50 (µM) Axenic amastigotes L. braziliensis) was 293 ± 20 µM. For the same compound, the “Selectivity Index (SI) Axenic amastigotes L. braziliensis” value [5, 12] was 10.30, the IC50 ([6]; Leishmania infantum, axenic amastigotes, 48 h, mean ± SD, read-out: IC50 (µM) Axenic amastigotes L. infantum) was 262 ± 17 µM and the “Selectivity Index (SI) Axenic amastigotes L. infantum” value [6, 12] was 11.60. For the same compound, the CC50 at 48 h [7] was 3010 ± 114 µM, the “RBC50” value [8] was 3400.76 ± 78 µM and the “Infection After Treatment (%)” value ([9]; 35.18 µM) was 80.20%. The “Infectiveness Reduction (%)” value ([9]; 35.18 µM) was 13.11%, the “Number of Amastigotes per Macrophage” value ([9]; 35.18 µM) was 5.40 and the “Infection After Treatment (%)” value ([9]; 70.36 µM) was 71.80%. For the same compound, the “Infectiveness Reduction (%)” value ([9]; 70.36 µM) was 22.21%, the “Number of Amastigotes per Macrophage” value ([9]; 70.36 µM) was 3.70 and the “Infection After Treatment (%)” value ([9]; 140.72 µM) was 63.40%. For the same compound, the “Infectiveness Reduction (%)” value ([9]; 140.72 µM) was 31.31%, the “Number of Amastigotes per Macrophage” value ([9]; 140.72 µM) was 6.30 and the “Infection After Treatment (%)” value ([10]; 35.18 µM) was 56.50%. For the same compound, the “Infectiveness Reduction (%)” value ([10]; 35.18 µM) was 17.76%, the “Number of Amastigotes per Macrophage” value ([10]; 35.18 µM) was 6.40 and the “Infection After Treatment (%)” value ([10]; 70.36 µM) was 50.80%. The “Infectiveness Reduction (%)” value ([10]; 70.36 µM) was 26.06%, the “Number of Amastigotes per Macrophage” value ([10]; 70.36 µM) was 3.70 and the “Infection After Treatment (%)” value ([10]; 140.72 µM) was 43.20%. The “Infectiveness Reduction (%)” value ([10]; 140.72 µM) was 37.12%, the “Number of Amastigotes per Macrophage” value ([10]; 140.72 µM) was 3.70 and the “Infection After Treatment (%)” value ([11]; 35.18 µM) was 65.50%. For the same compound, the “Infectiveness Reduction (%)” value ([11]; 35.18 µM) was 12.08%, the “Number of Amastigotes per Macrophage” value ([11]; 35.18 µM) was 4.80 and the “Infection After Treatment (%)” value ([11]; 70.36 µM) was 58.70%. The “Infectiveness Reduction (%)” value ([11]; 70.36 µM) was 21.21%, the “Number of Amastigotes per Macrophage” value ([11]; 70.36 µM) was 2.80 and the “Infection After Treatment (%)” value ([11]; 140.72 µM) was 50.70%. The “Infectiveness Reduction (%)” value ([11]; 140.72 µM) was 31.95% and the “Number of Amastigotes per Macrophage” value ([11]; 140.72 µM) was 4.20.
